Data as given in patent US20050267145A1, “Treatment for lung cancer” (priority 2004, published 2005).

How the values were obtained:
[1] = test system: pulmonary adenomas; assay: Benzo(a)pyrene-induced pulmonary adenomas in A/J mice; format: in vivo, mouse; conditions: sixteen weeks; for Adenoma counts, groups 1H and 2H compared: high dose 425 μg/kg by inhalation
[2] = test system: A23187-Stimulated LTB4 in Rat Lung; assay: A23187-stimulated LTB4 in rat lung in situ (MDI dosing); conditions: 20 μg by single MDI activation into excised rat lung, A23187 challenge, LTB4 by RIA
Procedure: For the evaluation of test compounds using metered dose inhalers, dry compounds were dissolved in ethanol to a concentration of 2.33 mg/mL. 2.54 mL of this solution was added to a 20 g glass metered dose inhaler (MDI) vial and fitted with a continuous valve. The vials were cooled on dry ice, filled with 18 g of HFA 134a (DYMEL, E. I. Du Pont de Nemours and Co., Corpus Christi, Tex.), returned to dry ice, and the continuous valve was replaced with an intermittent valve that delivered 25 μL per activation. A single activation of a vial prepared as described delivered 20 μg of compound per activation. For experiments requiring different mass of compound per activation, the initial ethanol solution concentration was adjusted as necessary.
Male Sprague-Dawley rats (Charles River Laboratories, Inc. Wilmington, Mass.) weighing 250-300 grams were anesthetized with methoxyflurane in a closed container, the peritoneal cavity was exposed, and the animals were exsanguinated. The pleural cavity was exposed and the lung was removed with both the trachea and heart attached. The trachea was fitted with a cannula, secured with a ligature, and the distal end of the cannula was extended through a small hole in a #6 rubber stopper allowing for a tight seal. The lung, secured to the cannula and stopper, was then suspended in a 125 mL side arm Erlenmeyer flask filled to 100 mL with PBS warmed to 37° C. As such, access to the airways of the lung could be achieved through the cannula extending through the stopper to the outside of the flask. The flask was then placed in a 37° C. water bath.
An MDI, prepared as described above, containing test compound was fired with a single activation through the cannula and into the airways of the lung. The MDI were made to deliver 20 μg/shot, thus providing a dose of from about 0.06 mg/kg to about 0.08 mg/kg. Control lungs were similarly treated with an MDI containing propellant and co-solvent. The lungs were then incubated for 5 minutes at 37° C. Following this preincubation, 25 μL of 10 mM A23187 (Sigma Chemical Co., St. Louis, Mo.) was fired into the airways and the lung was incubated for an additional 10 minutes. Control lungs again were treated with propellant and co-solvent, only.
The lungs were then lavaged with 5 mL of ice cold PBS containing 1 mM EDTA. The recovered lavage fluid was centrifuged for 10 minutes at 150×g to sediment cells and LTB4 was quantified in the supernatant by specific RIA. The sensitivity of this assay was 155 pg/mL.

[3] = target: T1, 5-lipoxygenase (Mus musculus, UniProt P48999); assay: Sustained 5-lipoxygenase inhibition in vitro (LTC4 by RIA, mouse peritoneal macrophages, washout); format: cell-based; conditions: 10 μM for 30 minutes, washed, six hours washout, zymosan 50 μg/mL challenge; for inhibition at 10 µM: read-out: Sustained Inhibition, 10 μM Initial
T1 construct: Resident mouse peritoneal macrophages were obtained from male CD-1 mice; endogenous in cells; host or cells: resident peritoneal macrophages from male CD-1 mice (Charles River Laboratories)
T1 sequence (P48999 1-674): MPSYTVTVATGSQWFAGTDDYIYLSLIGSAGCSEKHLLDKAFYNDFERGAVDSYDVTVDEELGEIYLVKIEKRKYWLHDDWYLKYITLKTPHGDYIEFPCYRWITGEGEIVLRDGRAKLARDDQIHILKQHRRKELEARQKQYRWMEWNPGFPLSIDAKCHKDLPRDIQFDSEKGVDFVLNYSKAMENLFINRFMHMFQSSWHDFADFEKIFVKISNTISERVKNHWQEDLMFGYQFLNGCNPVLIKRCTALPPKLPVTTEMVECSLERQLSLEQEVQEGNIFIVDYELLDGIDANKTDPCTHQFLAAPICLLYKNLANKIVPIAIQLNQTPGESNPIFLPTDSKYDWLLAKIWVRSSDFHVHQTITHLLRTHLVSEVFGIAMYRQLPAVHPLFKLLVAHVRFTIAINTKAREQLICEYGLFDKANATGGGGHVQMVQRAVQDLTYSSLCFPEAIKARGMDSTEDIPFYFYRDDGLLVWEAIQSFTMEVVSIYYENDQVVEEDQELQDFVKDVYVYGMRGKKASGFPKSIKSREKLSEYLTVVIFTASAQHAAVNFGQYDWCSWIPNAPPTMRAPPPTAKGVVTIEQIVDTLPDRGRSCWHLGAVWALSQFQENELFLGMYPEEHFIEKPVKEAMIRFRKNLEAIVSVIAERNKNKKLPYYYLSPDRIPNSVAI
Procedure: LTC4 was purchased from Biomol International, L.P., Plymouth Meeting, Pa.; ^3H-LTC4 was purchased from PerkinElmer Life and Analytical Sciences, Inc., Boston, Mass.; and antibody to LTC4 was purchased from Advanced Magnetics, Inc., Cambridge, Mass.
The retrieved lavage medium was added to tissue culture dishes and incubated for two hours at 37° C. in a humidified atmosphere containing 5% CO2. Following macrophage enrichment by adherence, the culture medium was removed and the resultant cell layer was washed twice with PBS, the medium (with heparin) was replaced with 1 mL of medium (without heparin), and the cells were then incubated overnight as described above. The following morning the medium was removed and the macrophages were washed twice with 2 mL PBS. One mL of fresh medium, devoid of serum, was then added.
Test compounds were added to the macrophage cultures to achieve a final concentration of 10 μM. The final DMSO concentration was 0.1% in for each test compound. Blank and control cultures were treated with DMSO only. After 30 minutes incubation, the macrophages were washed twice with 2 mL PBS. […] This treatment described in (b) was to allow for a washout period for the test compound.

[4] = test system: lung tumors; conditions: mice, administered orally; cited from earlier work
[5] = test system: MC-26 murine colon carcinoma cells; assay: Lung metastatic mouse model (MC-26 colon carcinoma cells i.v.), lung weight; format: in vivo; conditions: statement on Table 3
Procedure: A lung metastatic mouse model was used to determine the anti-tumor activity of a 5-LO inhibitor (zileuton) in combination with an IRM. 12-18 week old CDF1 female mice (Charles River Laboratories, Inc.) weighing 20-22 grams were injected in the tail intravenously with 5×10^5 MC-26 murine colon carcinoma cells. IRM2 was prepared in a 0.03M citrate buffered saline solution, pH 4.0. Zileuton was prepared in a 10% ethanol in water solution. At four hours and 24 hours after tumor challenge, mice were injected intra-peritoneally with zileuton and IRM2 as indicated in Table 3. One group of mice (Vehicle) was untreated. Fourteen days after tumor challenge, mice were sacrificed and lungs were removed and weighed.

SMILES	Inhibition, 20 μg in situ [2]	inhibition at 10 µM [3]	further results
CCC(CC)N(O)C(=O)Nc1cccc(Oc2ccccc2)c1 [Compound 1, 1-hydroxy-1-(1-ethylpropyl)-3-(3-phenoxyphenyl)urea]	100	100%	Adenoma counts, groups 1H and 2H compared [1]: similar
CCCCCN(O)C(=O)Nc1ccc(OCCCC)cc1 [Compound 2, 3-(4-butoxyphenyl)-1-hydroxy-1-pentylurea]			Adenoma counts, groups 1H and 2H compared [1]: similar
O=C(Nc1ccccc1)N(O)CCCn1cccc1 [Compound 3, 1-hydroxy-1-(3-pyrrol-1-ylpropyl)-3-phenylurea]	84	3%	
CCCCCN(O)C(=O)Nc1cc(OC)c(OC)c(OC)c1 [Compound 4, 1-hydroxy-1-pentyl-3-(3,4,5-trimethoxyphenyl)urea]	84	24%	
CCC(CC)N(O)C(=O)Nc1ccc(Cc2ccc(NC(=O)N(O)C(CC)CC)cc2)cc1 [Compound 5]	66		Sustained Inhibition, 10 μM Initial [3]: 86
CCCCCN(O)C(=O)Nc1ccc(Oc2ccccc2)cc1 [Compound 6, 1-hydroxy-3-(4-phenoxyphenyl)-1-pentylurea]	88	100%	
CSc1ccc(NC(=O)N(O)C(C)C)cc1 [Compound 7, 1-hydroxy-1-(1-methylethyl)-3-[4-(methylthio)phenyl]urea]		18%	
CCC(CC)N(O)C(=O)Nc1ccccc1 [Compound 8, 1-hydroxy-1-(1-ethylpropyl)-3-phenylurea]	72	12%	
CSc1ccc(NC(=O)N(C)O)cc1 [Compound 9, 1-hydroxy-1-methyl-3-[4-(methylthio)phenyl]urea]		0%	
CC(c1cc2ccccc2s1)N(O)C(N)=O (stereo not drawn) [Zileuton, zileuton, reference compound]	42	28%	effect on the number of pulmonary adenomas ([1]; oral, average 245 mg/kg in the diet): did not have any apparent effect; preventing lung tumors and slowing growth and progression of adenoma to carcinoma [4]: effective; tumor growth [5]: inhibits tumor growth
